Reference: US20230172914A1, “BIOMARKER-BASED THERAPEUTIC COMPOSITION” (WELLMARKER BIO CO., LTD., priority 2019, published 2023)

What was measured:
[1] = tested on: colon cancer patient-derived cell line in which RON is not expressed; test: Cell death in colon cancer patient-derived cell line, active RON negative (immunofluorescence); assay type: cell-based, human; settings: 5 ug, 48 hours, KRAS normal
Description: The following condition and methods were used to perform the present experiment. […] Then, the respective cell lines were seeded at 5×10^5 cells onto 24-well plates, in which one sterile 12 mmΦ microscope cover glass was placed on each well, and incubated. The respective colon cancer patient-derived cell lines under incubation were subjected to treatment with Example 18 and Comparative Example 1, respectively, at 5 ug, and then incubated for 48 hours. Each incubated plate was washed twice with PBS, and then fixed with 100% Me-OH at room temperature for 5 minutes. The Me-OH was removed, and washing with PBS was performed three times for 5 minutes each. Then, 100 ul of 0.1% Triton X-100 (in PBS) was dispensed thereinto and permeabilization was allowed to occur for 5 minutes. Washing with PBS was performed three times for 5 minutes each, and then PBS was added thereto to prevent drying. Parafilm was attached to the 24-well plate cover, and then PBS-T (PBS+0.1% Tween 20) containing 3% BSA was dropped by 20 μl onto the parafilm. […] Then, washing with PBS-T (PBS+0.1% Tween 20) was performed twice, and a fluorescence microscope was used to identify the staining. […] Then, the cover glass was placed thereon, and a fluorescence microscope was used to take a fluorescence image.

KM12C (RONΔ160) = test: MTS assay KM12C (Experimental Example 6); assay type: cell-based; settings: Homo sapiens, 72 hours
Description: In MTS assay for Example 18 and Comparative Example 1, KM12C cell line was seeded at 1,000 cells per well into 96-well plates. After 24 hours, the cells were treated with various concentrations (0.000001 uM to 10 uM) of Example 18 and Comparative Example 1 in 100 ul of 10% FBS-MEM medium (Welgene) per well. Subsequently, the cells were incubated for 72 hours. Then, 20 μl of MTS solution (Promega) was added thereto, and incubation was performed for 2 hours. Then, the absorbance was measured at 490 nm. The IC50 values for Example 18 and Comparative Example 1 were calculated using GraphPad Prism™ 5 to investigate cytotoxicity.

KM12C cell line tumor = test: Efficacy in animal model transplanted with KM12C, 30 and 50 mpk (Experimental Example 11); assay type: in vivo, BALB/c nude mice; settings: once a day for 2 weeks
Description: 5-Week-old female BALB/c nude mice were purchased and acclimatized for 1 week. Then, human-derived colon cancer cell line KM12C (1.5×10^6 cells/mice) was diluted in PBS, and injected subcutaneously (100 μl) into the right dorsal side of the mice. Comparative Examples 1 and Example 18 were orally administered when the tumor reached a size of about 100 mm^3. The drug was administered at 30 mpk and 50 mpk once a day for 2 weeks, and tumor size and body weight were measured twice a week. […] After completion of the drug administration, the experimental animals were euthanized, and then the tumors were extracted and weighed to perform comparative analysis.

[2] = tested on: colon cancer patient tissue (active RON/RON mutant #1: Δ160); test: Efficacy in animal model transplanted with colon cancer patient tissue, 30 mpk; assay type: in vivo; settings: 30 mpk for 4 weeks
Description: Example 18 and Comparative Example 1 were administered to an animal model transplanted with the same patient tissue (active RON/RON mutant #1: Δ160) cells as in the animal model transplanted with colon cancer patient tissue tumor cells at 30 mpk for 4 weeks. […] The lower pictures of FIG. 21 show tumors extracted from representative individuals of the respective groups.

[3] = tested on: KM12C cell line carrying RON mutant (Δ160); test: Action mechanism in KM12C, Western blotting of related proteins; assay type: cell-based, human; settings: 1 μM, 5 μM, 48 hours
Description: KM12C cell line was seeded at 5×10^5 cells onto a 100-mm plate. Then, after 24 hours, the cells were subjected to treatment with Example 18 at respective concentrations (1 μM, 5 μM) for 48 hours. After 48 hours, the cells and cell suspensions were collected (1,500 rpm, 3 minutes), and changes in expression of related proteins were checked with Western blotting. RIPA Lysis Buffer (T&I) was added to the respective cells so as to achieve lysis. Then, BCA kit (Pierce) was used to quantify proteins. Then, the proteins were loaded onto 8% SDS-polyacrylamide, and electrophoresis was performed at 125 V.
Then, blocking was performed with 5% non-fat skim milk-TBST solution for 1 hour. Subsequently, the proteins were reacted with primary antibodies, which were diluted 1:1,000 in 5% non-fat skim milk-TBST solution, at 4° C. for 24 hours or 48 hours. Then, washing with TBST was performed three times. The resultant was reacted with anti-rabbit and anti-mouse IgG conjugated HRP secondary antibodies, which were diluted at 1:1,000, at room temperature for 2 hours. Then, washing with TBST was performed three times. Subsequently, the membrane was treated with the ECL solution (GE Healthcare), and developed by exposure to an X-ray film. Then, the bands were checked.

In the case of `CCOc1ccn(-c2ccc(F)cc2)c(=O)c1C(=O)Nc1ccc(Oc2ccnc3cc(-c4ccc(CN5CCOCC5)cn4)sc23)c(F)c1.Cl` [Example 18, 4-ethoxy-N-[3-fluoro-4-({2-[5-(morpholinomethyl)pyridin-2-yl]thieno[3,2-b]pyridine-7-yl}oxy)phenyl]-1-(4-fluorophenyl)-2-oxo-1,2-dihydropyridine-3-carboxamide hydrochloride], the “reactivity to drug treatment (cell death)” value [1] was “no reactivity”, the IC50 (KM12C (RONΔ160)) was 6.9 nM and the “TGI (%)” value (KM12C cell line tumor; 30 mg/kg oral) was 82.4%. The “TGI (%)” value (KM12C cell line tumor; 50 mg/kg oral) was 84.8%, the “change in mouse body weight” value (KM12C cell line tumor; 30 mpk and 50 mpk oral) was “little change in mouse body weight” and the “tumor growth inhibition efficacy” value (KM12C cell line tumor; 30 mpk and 50 mpk oral) was “very high tumor growth inhibition efficacy”. For the same compound, the “tumor growth inhibition efficacy” value [2] was “about 73%”, the “active RON (Western blotting)” value [3] was “decreases” and the “p-ERK, p-Src, p-Akt, and p-Gab1 (Western blotting)” value [3] was “decrease”.
